The record followed here is PubChem BioAssay (NCI).

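Where inhibition never reached the appropriate level, the endpoint shown equals the highest concentration tested. Otherwise, values were interpolated linearly from a five-concentration, 48-hour dose response in 96-well plates. GI50: concentration for 50% inhibition of growth. TGI: total growth inhibition.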

Test systems include SR leukemia; KM12 colon; HCT-15 colon; CAKI-1 renal; COLO 205 colon; HCC-2998 colon; A498 renal; M14 melanoma; SNB-75 CNS; MDA-MB-231 breast.
Holding throughout (assay): NCI tumour cell line growth inhibition, 48 h

Consider `O=C(N/C(=C/c1cccc([N+](=O)[O-])c1)c1nc2ccc(Cl)cc2[nH]1)c1ccccc1`, for which the TGI was 41.3 µM in the assay with SR leukemia; 31.1 µM in the assay with KM12 colon; more than 100 µM in the assay with HCT-15 colon; 71.3 µM with CAKI-1 renal; more than 100 µM in the assay on COLO 205 colon; 70.4 µM in the assay on HCC-2998 colon. Besides, the TGI was 66.2 µM in the assay with A498 renal, more than 100 µM in the assay with M14 melanoma and 68.3 µM with SNB-75 CNS.
As for `COc1cc(-c2cc3ncccc3c3[nH]c(=O)c4cccnc4c23)cc(OC)c1OC`, the GI50 is 1.54 µM with MDA-MB-231 breast; 0.359 µM in the assay with SR leukemia; 0.651 µM in the assay on KM12 colon; 0.683 µM in the assay with HCT-15 colon; 0.663 µM with CAKI-1 renal; 0.538 µM in the assay with COLO 205 colon. Besides, the GI50 in the assay with HCC-2998 colon was 2.08 µM; in the assay with M14 melanoma it was 0.425 µM; in the assay on SNB-75 CNS, 0.271 µM. Further, the TGI in the assay with MDA-MB-231 breast was more than 100 µM; with SR leukemia it was 71.9 µM; in the assay with KM12 colon it was more than 100 µM; in the assay with HCT-15 colon, more than 100 µM; in the assay with CAKI-1 renal, more than 100 µM; in the assay with COLO 205 colon, more than 100 µM. The results for the TGI in the assay on HCC-2998 colon, in the assay with M14 melanoma and in the assay with SNB-75 CNS were more than 100 µM, more than 100 µM and 62.9 µM, respectively.
Regarding `O=C(CN(/C=C/C(=O)C(F)(F)F)c1ccccc1)c1ccc(Cl)cc1`, the GI50 in the assay with MDA-MB-231 breast is 16.5 µM; in the assay with KM12 colon, 15.2 µM; with HCT-15 colon, 19.2 µM; with CAKI-1 renal, 17.8 µM; with COLO 205 colon it was 22.1 µM; in the assay on HCC-2998 colon, 14.7 µM. Besides, in the assay with A498 renal, the GI50 is 20.4 µM. The TGI in the assay with MDA-MB-231 breast was determined as 33.3 µM; in the assay with KM12 colon, 37.7 µM; in the assay with HCT-15 colon, 46 µM; with CAKI-1 renal, 42.5 µM; with COLO 205 colon, 49.1 µM; in the assay with HCC-2998 colon it was 28.5 µM. In the assay with A498 renal, this compound displayed a TGI of 42.2 µM.
For the compound `Cc1cn2c(/C=N/N=C(N)N)c(-c3ccncc3)nc2s1`, the GI50 in the assay on MDA-MB-231 breast was 52.6 µM; with SR leukemia it was 5.3 µM; in the assay on KM12 colon, 5.63 µM; in the assay with HCT-15 colon, 44.1 µM; in the assay with CAKI-1 renal it was more than 100 µM; in the assay with COLO 205 colon, 17.5 µM. In addition, the GI50 was 14.6 µM in the assay on HCC-2998 colon and 16.7 µM in the assay with M14 melanoma. In addition, the TGI in the assay on MDA-MB-231 breast was more than 100 µM; with SR leukemia it was 17.5 µM; in the assay with KM12 colon it was 19.6 µM; in the assay on HCT-15 colon, more than 100 µM; with CAKI-1 renal, more than 100 µM; in the assay with COLO 205 colon, 33.3 µM. For the same compound, the TGI with HCC-2998 colon came to 27.7 µM; in the assay with M14 melanoma, 30.3 µM.
`COc1cccc2nc3c(C(=O)NCCN(C)C)cccc3nc12`: the TGI was more than 37.9 µM in the assay on SR leukemia; 36.9 µM in the assay on KM12 colon; 80.1 µM with HCT-15 colon; more than 100 µM with CAKI-1 renal; 28.8 µM with COLO 205 colon; 36.3 µM in the assay on HCC-2998 colon. The TGI was 27.3 µM in the assay on A498 renal, 36.3 µM in the assay with M14 melanoma and more than 47.9 µM with SNB-75 CNS.
Consider `COC(=O)N/N=C(\C)C(CN(C)C)C(c1ccccc1)c1c(O)c2ccccc2oc1=O` (stereo unspecified), for which the TGI in the assay on SR leukemia, in the assay on KM12 colon, with HCT-15 colon, with CAKI-1 renal, in the assay with COLO 205 colon and in the assay on HCC-2998 colon was more than 100 µM throughout. The TGI in the assay with A498 renal, with M14 melanoma and in the assay with SNB-75 CNS was more than 100 µM each time.
In the case of `COc1cc(-c2nccc3cc4c(cc23)OCO4)cc(OC)c1OC`, the GI50 is 16.1 µM with MDA-MB-231 breast; 2.27 µM in the assay with KM12 colon; 3.57 µM in the assay on HCT-15 colon; 2.52 µM in the assay on CAKI-1 renal; more than 100 µM in the assay with COLO 205 colon; 8.68 µM with HCC-2998 colon. Besides, the GI50 in the assay with A498 renal was 2.55 µM; in the assay on M14 melanoma it was 3.36 µM; with SNB-75 CNS, 2.45 µM. Also, the TGI in the assay on MDA-MB-231 breast is more than 100 µM; in the assay on KM12 colon, more than 100 µM; in the assay on HCT-15 colon, more than 100 µM; in the assay with CAKI-1 renal, 10.5 µM; with COLO 205 colon, more than 100 µM; in the assay on HCC-2998 colon, 51.7 µM. For the same compound, the TGI with A498 renal is 15.2 µM; in the assay on M14 melanoma, 23.2 µM; in the assay with SNB-75 CNS, 79.7 µM.
As to `N#C/C(=C\c1ccccc1)C(NO)Nc1ccccc1` (stereo unspecified), the TGI in the assay with SR leukemia, in the assay with KM12 colon, in the assay with HCT-15 colon, in the assay with CAKI-1 renal, in the assay on COLO 205 colon and in the assay on HCC-2998 colon was more than 100 µM each time. Moreover, the TGI in the assay with A498 renal, in the assay on M14 melanoma and with SNB-75 CNS was more than 100 µM each time.
As for `COc1ccc(-c2nc(N)c(C#N)c3c2CCOc2c-3ccc3ccccc23)cc1`, the GI50 in the assay on MDA-MB-231 breast was 10.6 µM; in the assay with KM12 colon it was 42.7 µM; in the assay with HCT-15 colon it was 59.4 µM; with CAKI-1 renal it was 3.32 µM; in the assay on COLO 205 colon, 7.61 µM; in the assay on HCC-2998 colon, 56.1 µM. Besides, the GI50 was 66.6 µM with M14 melanoma and more than 100 µM in the assay with SNB-75 CNS. The TGI was 33.8 µM in the assay on MDA-MB-231 breast; more than 100 µM in the assay with KM12 colon; more than 100 µM in the assay on HCT-15 colon; 19.6 µM in the assay with CAKI-1 renal; more than 100 µM with COLO 205 colon; more than 100 µM with HCC-2998 colon. Besides, the TGI in the assay on M14 melanoma and with SNB-75 CNS was more than 100 µM each time.
`COc1cc(CN(c2ccc(C)cc2)C2OC(=O)c3ccccc32)cc(OC)c1OC` (stereo unspecified): the GI50 with MDA-MB-231 breast was 0.846 µM; with KM12 colon, 0.445 µM; with HCT-15 colon it was 0.568 µM; in the assay on CAKI-1 renal, 0.472 µM; in the assay with COLO 205 colon, 0.351 µM; in the assay with HCC-2998 colon, 0.877 µM. The results for the GI50 in the assay with A498 renal, with M14 melanoma and in the assay on SNB-75 CNS were 0.361 µM, 0.43 µM and 0.285 µM, respectively. Besides, the TGI is more than 100 µM with MDA-MB-231 breast; more than 100 µM in the assay with KM12 colon; more than 100 µM in the assay with HCT-15 colon; more than 100 µM with CAKI-1 renal; 1.3 µM with COLO 205 colon; more than 31.2 µM with HCC-2998 colon. For the same compound, the results for the TGI with A498 renal, in the assay with M14 melanoma and with SNB-75 CNS were 4.52 µM, more than 100 µM and more than 100 µM, respectively.
